Assay results reported in ChEMBL document CHEMBL1201862, “PubChem BioAssay data set” (2004).
The source made the active and inactive calls.

What was measured:
cells [1] = format: functional, cell-based
[2] = target: T1, Calpain-2 catalytic subunit (Sus scrofa, UniProt P43367); assay: pig calpain II inhibitor potency, dose response, biochemical, fluorogenic peptide substrate (AID 1420); format: functional
T1 sequence (P43367 whole entry): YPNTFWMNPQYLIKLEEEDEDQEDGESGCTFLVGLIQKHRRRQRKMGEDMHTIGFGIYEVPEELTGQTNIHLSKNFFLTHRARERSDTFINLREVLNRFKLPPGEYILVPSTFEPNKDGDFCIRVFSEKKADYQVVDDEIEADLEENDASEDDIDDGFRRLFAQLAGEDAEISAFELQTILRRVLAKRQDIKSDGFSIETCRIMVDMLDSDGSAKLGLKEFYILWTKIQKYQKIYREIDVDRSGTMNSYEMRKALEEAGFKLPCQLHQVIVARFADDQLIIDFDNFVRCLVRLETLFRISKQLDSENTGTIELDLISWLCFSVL

cells [3] = format: functional, cell-based; remark: listed apart in the source
Cytochrome P450 3A4 [4] = target: T2, Cytochrome P450 3A4 (Homo sapiens, UniProt P08684)
Cytochrome P450 2C19 = Cytochrome P450 2C19 (Homo sapiens, UniProt P33261); assay: Cytochrome panel assay with activity outcomes. Panel member name: p450-cyp2c19 Compounds with AC50 equal or less than 10 uM are considered active; format: functional
[5] = target: Induced myeloid leukemia cell differentiation protein Mcl-1 (Homo sapiens, UniProt Q07820); format: functional
Cytochrome P450 3A4 [6] = target: T2, Cytochrome P450 3A4; conditions: Potency
Vero [7] = assay: cells; format: functional, Chlorocebus sabaeus; conditions: Chlorocebus sabaeus, Vero
Vero [8] = assay: cells; format: functional, cell-based; conditions: Chlorocebus sabaeus
[9] = target: T3, Short transient receptor potential channel 4 (Mus musculus, UniProt Q9QUQ5); assay: mouse TRPC4 channel inhibitors, dose response, cell-based, HEK293 TRPC4/mu-opioid, Fluo-4 calcium (AID 434942); format: functional;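 also: potency of inhibitors blocking the TRPC4 calcium response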
T3 sequence (Q9QUQ5 whole entry): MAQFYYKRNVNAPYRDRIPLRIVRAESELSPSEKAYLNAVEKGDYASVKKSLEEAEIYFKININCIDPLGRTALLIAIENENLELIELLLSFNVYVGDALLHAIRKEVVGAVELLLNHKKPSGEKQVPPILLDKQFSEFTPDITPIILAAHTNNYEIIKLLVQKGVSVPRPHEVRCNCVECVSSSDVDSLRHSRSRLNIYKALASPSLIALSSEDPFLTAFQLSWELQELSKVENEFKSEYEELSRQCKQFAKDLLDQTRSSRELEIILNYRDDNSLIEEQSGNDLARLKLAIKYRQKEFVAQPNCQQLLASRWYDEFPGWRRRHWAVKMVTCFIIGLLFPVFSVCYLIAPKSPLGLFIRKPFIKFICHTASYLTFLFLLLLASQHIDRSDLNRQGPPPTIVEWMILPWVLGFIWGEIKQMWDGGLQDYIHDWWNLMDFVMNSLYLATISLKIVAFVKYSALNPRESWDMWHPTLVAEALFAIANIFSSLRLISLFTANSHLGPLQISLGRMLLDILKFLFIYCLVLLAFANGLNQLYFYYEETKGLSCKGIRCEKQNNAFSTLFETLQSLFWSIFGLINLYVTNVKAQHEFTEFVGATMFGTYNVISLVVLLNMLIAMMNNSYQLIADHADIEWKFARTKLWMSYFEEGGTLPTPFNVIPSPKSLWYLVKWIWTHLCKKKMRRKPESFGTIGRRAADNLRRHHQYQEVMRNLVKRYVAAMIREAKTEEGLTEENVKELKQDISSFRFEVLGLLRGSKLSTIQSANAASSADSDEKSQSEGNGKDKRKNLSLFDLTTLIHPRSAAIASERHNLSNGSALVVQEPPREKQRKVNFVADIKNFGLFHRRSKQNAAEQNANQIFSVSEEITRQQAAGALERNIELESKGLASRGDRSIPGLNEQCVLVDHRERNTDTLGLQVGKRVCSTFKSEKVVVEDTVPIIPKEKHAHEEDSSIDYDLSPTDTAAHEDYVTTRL

Cytochrome P450 2D6 = Cytochrome P450 2D6 (Homo sapiens, UniProt P10635);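 also: CYP2D6 member of a cytochrome P450 panel assay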
Cytochrome P450 3A4 [10] = target: T2, Cytochrome P450 3A4; remark: listed apart in the source
Large T antigen = Large T antigen (Simian virus 40, UniProt P03070); format: functional, Betapolyomavirus macacae;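 also: Confirmatory-stage PubChem screen for compounds that inhibit SV40 T antigen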
[11] = target: T4, Voltage-gated N-type calcium channel alpha-1B subunit/Amyloid beta A4 precursor protein-binding family A member 1 (Homo sapiens, UniProt Q00975+Q02410); format: protein assay
[12] = target: T4, Voltage-gated N-type calcium channel alpha-1B subunit/Amyloid beta A4 precursor protein-binding family A member 1; format: protein assay; remark: listed apart in the source
Caspase-6 = target: T5, Caspase-6 (Homo sapiens, UniProt P55212); assay: human caspase-6 inhibitors, dose response, biochemical, VEID-R110 fluorescence, cherry-pick (AID 720632)
T5 sequence (P55212 whole entry): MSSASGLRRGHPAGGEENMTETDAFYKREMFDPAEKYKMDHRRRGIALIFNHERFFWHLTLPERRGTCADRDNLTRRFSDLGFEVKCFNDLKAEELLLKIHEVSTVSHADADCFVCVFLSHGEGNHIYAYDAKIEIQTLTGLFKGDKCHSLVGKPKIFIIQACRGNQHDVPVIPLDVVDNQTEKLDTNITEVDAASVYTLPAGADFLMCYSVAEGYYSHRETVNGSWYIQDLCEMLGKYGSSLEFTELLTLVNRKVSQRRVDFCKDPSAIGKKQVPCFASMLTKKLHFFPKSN

[13] = target: Disintegrin and metalloproteinase domain-containing protein 17 (Homo sapiens, UniProt P78536); assay: ADAM17 protease inhibitors, dose response, counter-screen for ADAM10 exosite inhibitor project, biochemical, quenched FRET substrate (AID 743253)
H9c2 = assay: cells; format: functional, cell-based; conditions: Rattus norvegicus, H9c2, Myocardium;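 also: confirmatory concentration-response retest of ultra-high-throughput screening hits for modulation of myocardial damage; cell death induced by hydrogen peroxide oxidative stress; compound pretreatment for 60 min then peroxide exposure for 2 h; potency is for protecting the cells against peroxide damage rather than for killing them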

T2 sequence (P08684 whole entry): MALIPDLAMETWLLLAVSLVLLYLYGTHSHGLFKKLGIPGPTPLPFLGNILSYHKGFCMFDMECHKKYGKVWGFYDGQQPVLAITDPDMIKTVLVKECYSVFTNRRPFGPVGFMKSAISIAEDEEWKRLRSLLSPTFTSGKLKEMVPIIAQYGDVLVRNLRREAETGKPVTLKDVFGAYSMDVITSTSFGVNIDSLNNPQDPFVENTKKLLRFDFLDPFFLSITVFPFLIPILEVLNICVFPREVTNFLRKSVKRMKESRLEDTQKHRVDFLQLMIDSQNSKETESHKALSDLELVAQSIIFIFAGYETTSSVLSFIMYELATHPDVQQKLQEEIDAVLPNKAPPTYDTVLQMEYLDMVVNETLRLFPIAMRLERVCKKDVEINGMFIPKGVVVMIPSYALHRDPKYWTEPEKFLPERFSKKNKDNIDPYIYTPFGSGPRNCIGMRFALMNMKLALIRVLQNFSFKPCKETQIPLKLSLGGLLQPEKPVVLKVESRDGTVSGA
T4 sequence (Q00975 whole entry): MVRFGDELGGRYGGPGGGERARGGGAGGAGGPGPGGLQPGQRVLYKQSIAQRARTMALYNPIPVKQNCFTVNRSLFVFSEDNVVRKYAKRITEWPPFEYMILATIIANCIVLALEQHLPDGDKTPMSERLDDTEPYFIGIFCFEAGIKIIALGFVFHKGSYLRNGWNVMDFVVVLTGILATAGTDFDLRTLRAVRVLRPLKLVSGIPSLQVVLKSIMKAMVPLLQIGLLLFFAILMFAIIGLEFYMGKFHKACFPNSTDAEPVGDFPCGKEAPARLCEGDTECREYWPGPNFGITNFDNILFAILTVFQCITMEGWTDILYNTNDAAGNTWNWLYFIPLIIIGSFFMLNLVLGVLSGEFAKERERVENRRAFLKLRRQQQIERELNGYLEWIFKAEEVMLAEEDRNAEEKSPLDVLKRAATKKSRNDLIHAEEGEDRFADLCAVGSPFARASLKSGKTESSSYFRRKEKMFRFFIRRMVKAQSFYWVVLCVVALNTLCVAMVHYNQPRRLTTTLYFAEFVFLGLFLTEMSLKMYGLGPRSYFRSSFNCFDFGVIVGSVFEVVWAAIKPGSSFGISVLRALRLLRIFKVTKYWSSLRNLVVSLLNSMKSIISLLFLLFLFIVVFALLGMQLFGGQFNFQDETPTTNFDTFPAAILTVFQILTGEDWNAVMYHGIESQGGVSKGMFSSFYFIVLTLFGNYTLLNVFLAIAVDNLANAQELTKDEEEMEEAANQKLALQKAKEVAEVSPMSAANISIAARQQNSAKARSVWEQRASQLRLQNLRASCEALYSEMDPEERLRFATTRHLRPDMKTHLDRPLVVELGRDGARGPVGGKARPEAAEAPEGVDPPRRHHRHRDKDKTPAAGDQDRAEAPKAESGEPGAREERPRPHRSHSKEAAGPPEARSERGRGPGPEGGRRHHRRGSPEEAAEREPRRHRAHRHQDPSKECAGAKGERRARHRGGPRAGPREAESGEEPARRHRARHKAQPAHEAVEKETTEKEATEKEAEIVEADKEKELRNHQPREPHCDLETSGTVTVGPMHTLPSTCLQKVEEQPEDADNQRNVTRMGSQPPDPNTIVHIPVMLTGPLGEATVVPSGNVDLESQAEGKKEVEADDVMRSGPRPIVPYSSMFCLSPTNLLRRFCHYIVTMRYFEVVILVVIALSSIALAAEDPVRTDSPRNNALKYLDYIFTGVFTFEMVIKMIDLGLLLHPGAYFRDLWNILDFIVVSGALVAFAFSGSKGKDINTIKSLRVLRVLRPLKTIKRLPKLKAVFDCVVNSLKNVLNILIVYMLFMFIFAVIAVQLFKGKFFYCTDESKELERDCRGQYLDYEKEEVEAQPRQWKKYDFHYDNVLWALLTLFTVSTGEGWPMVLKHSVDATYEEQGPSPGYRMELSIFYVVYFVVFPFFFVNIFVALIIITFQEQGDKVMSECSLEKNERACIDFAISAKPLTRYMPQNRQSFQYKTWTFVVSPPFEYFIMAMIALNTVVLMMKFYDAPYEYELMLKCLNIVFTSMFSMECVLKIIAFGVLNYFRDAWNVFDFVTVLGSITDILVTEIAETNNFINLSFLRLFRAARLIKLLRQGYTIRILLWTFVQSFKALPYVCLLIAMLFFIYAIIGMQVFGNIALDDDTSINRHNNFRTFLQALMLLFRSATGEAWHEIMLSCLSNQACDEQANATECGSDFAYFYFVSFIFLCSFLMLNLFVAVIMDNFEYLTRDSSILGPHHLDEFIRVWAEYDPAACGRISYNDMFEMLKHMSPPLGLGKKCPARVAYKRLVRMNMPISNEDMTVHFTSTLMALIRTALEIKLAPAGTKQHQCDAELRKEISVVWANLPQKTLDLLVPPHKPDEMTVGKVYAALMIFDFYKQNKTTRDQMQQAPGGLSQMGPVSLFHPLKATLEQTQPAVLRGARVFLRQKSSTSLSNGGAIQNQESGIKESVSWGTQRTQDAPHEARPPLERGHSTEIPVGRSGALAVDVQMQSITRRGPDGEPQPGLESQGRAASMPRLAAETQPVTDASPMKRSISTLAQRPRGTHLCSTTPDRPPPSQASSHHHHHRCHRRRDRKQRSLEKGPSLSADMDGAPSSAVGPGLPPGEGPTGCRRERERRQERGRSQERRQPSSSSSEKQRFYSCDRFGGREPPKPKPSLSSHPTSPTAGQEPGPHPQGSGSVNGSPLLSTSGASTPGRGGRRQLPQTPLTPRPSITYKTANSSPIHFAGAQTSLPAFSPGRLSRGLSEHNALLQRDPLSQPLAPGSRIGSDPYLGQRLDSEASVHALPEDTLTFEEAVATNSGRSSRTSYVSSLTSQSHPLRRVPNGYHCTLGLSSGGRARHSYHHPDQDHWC
T4 sequence (Q02410 whole entry): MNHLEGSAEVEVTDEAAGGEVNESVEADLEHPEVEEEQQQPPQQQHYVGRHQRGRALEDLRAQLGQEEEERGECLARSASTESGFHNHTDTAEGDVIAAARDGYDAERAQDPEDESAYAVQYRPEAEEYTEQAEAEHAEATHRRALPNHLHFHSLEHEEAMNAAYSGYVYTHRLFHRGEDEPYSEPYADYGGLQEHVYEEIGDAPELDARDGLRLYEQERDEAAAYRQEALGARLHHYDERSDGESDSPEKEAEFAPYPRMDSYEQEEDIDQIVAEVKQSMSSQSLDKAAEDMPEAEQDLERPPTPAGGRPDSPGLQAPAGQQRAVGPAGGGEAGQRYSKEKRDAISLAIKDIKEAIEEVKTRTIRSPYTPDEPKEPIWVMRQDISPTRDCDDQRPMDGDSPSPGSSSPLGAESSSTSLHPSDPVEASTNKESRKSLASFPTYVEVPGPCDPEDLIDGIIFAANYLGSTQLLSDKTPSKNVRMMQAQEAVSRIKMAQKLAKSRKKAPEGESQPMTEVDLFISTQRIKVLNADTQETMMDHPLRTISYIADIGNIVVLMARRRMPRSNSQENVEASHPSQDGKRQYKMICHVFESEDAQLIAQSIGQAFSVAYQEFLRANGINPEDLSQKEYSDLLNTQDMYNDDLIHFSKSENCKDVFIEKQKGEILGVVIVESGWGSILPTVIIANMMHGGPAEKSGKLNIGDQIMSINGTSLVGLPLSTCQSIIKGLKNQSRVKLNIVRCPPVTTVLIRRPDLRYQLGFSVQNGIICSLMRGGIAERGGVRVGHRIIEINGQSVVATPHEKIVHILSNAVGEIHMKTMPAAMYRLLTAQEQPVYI
Cytochrome P450 2C19, sequence (P33261 whole entry): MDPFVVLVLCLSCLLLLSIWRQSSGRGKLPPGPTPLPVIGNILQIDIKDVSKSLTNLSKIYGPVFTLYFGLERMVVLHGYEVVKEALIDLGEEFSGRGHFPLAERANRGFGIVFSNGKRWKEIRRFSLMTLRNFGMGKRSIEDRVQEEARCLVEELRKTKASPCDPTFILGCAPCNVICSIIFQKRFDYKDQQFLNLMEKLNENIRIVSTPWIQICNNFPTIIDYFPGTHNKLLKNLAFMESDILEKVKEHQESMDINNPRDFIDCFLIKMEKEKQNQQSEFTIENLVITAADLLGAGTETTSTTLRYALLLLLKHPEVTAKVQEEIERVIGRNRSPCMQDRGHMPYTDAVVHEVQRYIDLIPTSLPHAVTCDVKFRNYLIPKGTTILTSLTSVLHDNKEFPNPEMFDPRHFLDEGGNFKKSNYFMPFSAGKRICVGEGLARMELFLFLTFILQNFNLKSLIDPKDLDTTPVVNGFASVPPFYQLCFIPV
Induced myeloid leukemia cell differentiation protein Mcl-1, sequence (Q07820 whole entry): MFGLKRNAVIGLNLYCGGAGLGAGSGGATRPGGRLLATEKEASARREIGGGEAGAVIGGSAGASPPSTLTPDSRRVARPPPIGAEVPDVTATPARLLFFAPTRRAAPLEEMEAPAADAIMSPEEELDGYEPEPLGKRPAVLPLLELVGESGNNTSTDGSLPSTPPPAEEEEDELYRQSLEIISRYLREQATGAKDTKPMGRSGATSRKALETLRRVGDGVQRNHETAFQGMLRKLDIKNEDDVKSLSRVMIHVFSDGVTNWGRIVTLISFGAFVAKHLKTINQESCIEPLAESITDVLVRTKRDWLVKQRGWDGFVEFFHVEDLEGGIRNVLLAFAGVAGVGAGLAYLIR
Cytochrome P450 2D6, sequence (P10635 whole entry): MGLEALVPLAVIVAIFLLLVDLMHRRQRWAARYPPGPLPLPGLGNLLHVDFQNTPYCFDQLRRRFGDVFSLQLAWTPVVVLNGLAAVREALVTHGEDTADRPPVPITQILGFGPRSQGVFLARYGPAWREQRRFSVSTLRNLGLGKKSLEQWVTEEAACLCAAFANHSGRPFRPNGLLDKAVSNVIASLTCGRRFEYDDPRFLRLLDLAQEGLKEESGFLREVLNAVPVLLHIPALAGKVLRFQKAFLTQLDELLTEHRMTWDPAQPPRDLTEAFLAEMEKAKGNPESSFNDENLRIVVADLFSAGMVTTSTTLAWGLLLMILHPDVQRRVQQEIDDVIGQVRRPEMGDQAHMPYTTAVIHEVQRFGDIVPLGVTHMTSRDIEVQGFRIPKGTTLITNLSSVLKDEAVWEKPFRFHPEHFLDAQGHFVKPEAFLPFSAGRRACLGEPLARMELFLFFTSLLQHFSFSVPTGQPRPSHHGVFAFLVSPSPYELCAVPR

Which results are given for `O=C(c1ccc(-c2nnc(-c3ccccc3)o2)cc1)N1CCCCCC1`?
EC50 (cells [1]): 5.78 µM (active); IC50 [2]: 11 µM (not active); EC50 (cells [3]): > 350 µM (not active)

With `O=C(O)/C=C/C(=O)Nc1ccc(F)cc1F` as the compound, how does the AC50 (Cytochrome P450 3A4 [4]) read?
The AC50 was “inconclusive”.

And the AC50 (Cytochrome P450 2C19; read-out: AC50)?
The AC50 was 39.8 µM (inconclusive).

Which IC50 [2] does the source give for `O=C(CSc1nnnn1-c1ccc2c(c1)OCCO2)OC1CCCCC1` here?
The IC50 was 10.3 µM (not active).

For `CC(C)CCC(CCN1CCCC1)c1ccc2c(c1)OCO2` (stereo unspecified), which IC50 [5] is on record?
Its IC50 is 6.38 µM (not active).

Which AC50 (Cytochrome P450 3A4 [4]) does the source give for `Cn1c(=O)c(-c2ccc(Cl)cc2)nc2cnc(Oc3ccccc3)nc21` here?
Its AC50 is “inconclusive”.

Which AC50 (Cytochrome P450 3A4 [6]) does the source give for `CC(=O)N1CC=CC1(C)C(=O)O` (stereo unspecified) here?
Its AC50 is 20 µM (inconclusive).

For `O=C(Cc1coc2ccc3ccccc3c12)Nc1nnc(C2CC2)s1`, which CC50 (Vero [7]) is on record?
The CC50 was > 25 µM (active).

And the IC50 (Vero [8])?
Its IC50 is 21.7 µM (active).

With `Cc1cc(N2CCCCCC2)nc2ccccc12` as the compound, how does the EC50 [9] read?
Its EC50 is 1.33 µM (active).

With `Cc1cccnc1NC(=O)C12CCC(C)(C(=O)O1)C2(C)C` (stereo unspecified) as the compound, how does the AC50 (Cytochrome P450 3A4 [4]) read?
Its AC50 is “inconclusive”.

What about the AC50 (Cytochrome P450 2C19) of the same compound?
Its AC50 is “inconclusive”.

With `Cc1ccc2c(c1)nnn2C1CCN(S(=O)(=O)c2ccc(C(=O)N3CC(C)CC(C)C3)cc2)CC1` (stereo unspecified) as the compound, how does the IC50 [2] read?
Its IC50 is 3.74 µM (not active).

With `CCCCc1nc(SCCOC)c2c(=O)n(C)c(=O)n(C)c2n1` as the compound, how does the EC50 [9] read?
The EC50 was 1.5 µM (active).

What does the source list for `N#Cc1c(N2CCCCC2)nc(N)c2c(N)nc3c(c12)CC(c1ccccc1)O3` (stereo unspecified)?
EC50 [9]: 2.99 µM (active); AC50 (Cytochrome P450 2D6): 25.1 µM (inconclusive); AC50 (Cytochrome P450 3A4 [10]): 1 µM (inconclusive)

Which IC50 (Large T antigen) does the source give for `COc1cccc(N2C(=O)NC(=O)/C(=C\c3ccc([N+](=O)[O-])s3)C2=O)c1` here?
The IC50 was 32.4 µM (active).

And the IC50 [11]?
The IC50 was 6.66 µM (active).

And the IC50 [12]?
Its IC50 is 13.5 µM (active).

What about the AC50 (Caspase-6) of the same compound?
The AC50 was 43 µM (active).

Which IC50 [2] does the source give for `O=C(CCCCn1c(=O)c2ccccc2n(CC(=O)NC2CCCC2)c1=O)NCc1ccco1` here?
Its IC50 is 28.8 µM (not active).

What does the source list for `O=C1OCCN1C(=O)[C@H]1[C@H](c2ccc([N+](=O)[O-])cc2)C(c2cccc(Cl)c2)=NN1c1ccc(Br)cc1`?
IC50 [13]: > 69.5 µM (inactive); IC50 (H9c2): > 79 µM (inactive)
